Test results taken from patent US12268694B2, “Combination pharmaceutical agents as RSV inhibitors” (Enanta Pharmaceuticals, Inc., priority 2017, dated 2025).

System: genotype A, "Long" strain RSV
Test: RSV-A assay: CPE protection in HEp-2 cells, ATPlite readout
Assay type: cell-based, human respiratory syncytial virus
Conditions: HEp-2 cells, RSV-A Long strain, ATPlite readout; read-out: Human RSV-A (“Long” strain) EC50
Excerpt: HEp-2 cells, (originally derived from tumors grown in irradiated-cortisonised weanling rats that had been injected with epidermoid carcinoma tissue from a person's larynx, but later found to be indistinguishable from HeLa cells by PCR DNA analysis), were used for the culturing of genotype A, “Long” strain RSV. Flasks were inoculated with RSV and viral stocks were collected once cytopathic effect (CPE) was greater than 90%. Viral stocks in 25% sucrose media were snap frozen using liquid nitrogen to increase viral stability. Viral stock titers were quantified by tissue culture infectious dose 50% (TCID50) using 8,000 cells per well and 3-fold viral dilutions across a 96-well plate, cultured for 4 days. Viral stock titers were also quantified by a plaque forming unit assay, as described elsewhere.
Following extensive parameter testing, the final assay is run as follows: HEp-2 cells are seeded into the inner 60 wells of a 96-well plate at 8,000 cells per well in a volume of 50 μL using Growth Media (DMEM without phenol red, 1% L-Glut, 1% Penn/Strep, 1% nonessential amino acids, 10% heat-inactivated FBS). 2-fold serial dilutions of control and test compounds are added to the wells in duplicate in a total volume of 25 μL. Viral stock is then added to the wells at a multiplicity of infection (MOI) of 0.1 in a volume of 25 μL, bringing the total volume of each well to 100 μL. The MOI is calculated using the PFU/mL, or TCID50 if unavailable. Each 96-well plate has a control column of 6 wells with cells and virus but no compound (negative control, max CPE), a column with cells but no compound or virus (positive control, minimum CPE), and a column with no cells or virus or compound (background plate/reagent control). The control wells with cells but no virus are given an additional 25 μL of growth media containing an equal quantity of sucrose as those wells receiving the viral stock in order to keep consistent in media and volume conditions. The outer wells of the plate are filled with 125 μL of moat media (DMEM, 1% Penn/Strep) to act as a thermal and evaporative moat around the test wells. Following a 5-day incubation period, the plates are read using ATPlite (50 μL added per well), which quantifies the amount of ATP (a measure of cell health) present in each well. Assay plates are read using the Envision luminometer. In parallel, cytotoxicity is examined on an additional 96-well plate treated in an identical manner, but substituting the 25 μL of viral stock for 25 μL of growth media. […] EC50 ranges are as follows: A <0.4 μM; B 0.4-0.8 μM; C >0.8 μM and CC50 ranges are as follows: A >50 μM; B 10-50 μM; C <10 μM.

Row | Structure (SMILES) | EC50 [nM]
1 | O=C1Nc2ccccc2C(c2ccccc2)=NC1Nc1nnc(-c2c(F)cc(F)cc2N2CCOCC2)o1 (stereo not drawn) [Example 170] | > 800
2 | O=C1Nc2ccccc2C(c2ccccc2)=NC1Nc1nnc(-c2c(F)cc(F)cc2N2CCOCC2)o1 (stereo not drawn) [Example 171] | > 800

Same assay, conditions: human respiratory syncytial virus, HEp-2, read-out: Human RSV-A (“Long” strain) EC50

Row | Structure (SMILES) | EC50 [nM]
3 | O=C1Nc2ccccc2C(c2ccccc2)=N[C@@H]1Nc1nnc(-c2ccc(=O)[nH]c2N2CCOCC2)o1 [Example 156, (S)-3-((5-(2-morpholino-6-oxo-1,6-dihydropyridin-3-yl)-1,3,4-oxadiazol-2-yl)amino)-5-phenyl-1,3-dihydro-2H-benzo[e][1,4]diazepin-2-one] | > 800
4 | N#Cc1ccc(-c2nnc(N[C@H]3N=C(c4ccccc4)c4ccccc4NC3=O)o2)c(N2CCOCC2)c1 [Example 157] | < 400
5 | O=C1Nc2ccccc2C(c2ccccc2)=N[C@@H]1Nc1nnc(-c2ccc(F)cc2N2CCOCC2)o1 [Example 159] | < 400
6 | O=C1Nc2ccccc2C(c2ccccc2)=N[C@@H]1Nc1nnc(-c2cnc(N3CCOCC3)cn2)o1 [Example 161] | > 800
7 | O=C1Nc2ccccc2C(c2ccccc2)=N[C@@H]1Nc1nnc(-c2cnc(C(F)(F)F)nc2N2CCOCC2)o1 [Example 162] | < 400
8 | O=C1Nc2ccccc2C(c2ccccc2)=N[C@@H]1Nc1nnc(-c2nc3ccccn3c2N2CCOCC2)o1 [Example 163] | > 800
9 | Cn1cc(N2CCOCC2)c(-c2nnc(N[C@H]3N=C(c4ccccc4)c4ccccc4NC3=O)o2)n1 [Example 164] | < 400
10 | O=C1Nc2ccccc2C(c2ccccc2)=N[C@@H]1Nc1nnc(-c2cnc(N3CCOCC3)nc2)o1 [Example 165] | 400 to 800
11 | O=C1Nc2ccccc2C(c2ccccc2)=N[C@@H]1Nc1nnc(-c2cnc(N3CC4CCC(C3)O4)nc2)o1 [Example 166] | > 800
12 | O=C1Nc2ccccc2C(c2ccccc2)=N[C@@H]1Nc1nnc(-c2cnc(C3CC3)nc2N2CCOCC2)o1 [Example 167] | < 400
13 | O=C1Nc2ccccc2C(c2ccccc2)=N[C@@H]1Nc1nnc(-c2cnc(-n3cccn3)nc2N2CCOCC2)o1 [Example 172] | > 800
14 | O=C1Nc2ccccc2C(c2ccccc2)=N[C@@H]1Nc1nnc(-c2cnc(-n3cncn3)nc2N2CCOCC2)o1 [Example 173] | > 800
15 | N#Cc1cnc(N2CCOCC2)c(-c2nnc(N[C@H]3N=C(c4ccccc4)c4ccccc4NC3=O)o2)c1 [Example 174] | < 400
16 | CCc1nc(N2CCOCC2)c(-c2nnc(N[C@H]3N=C(c4ccccc4)c4ccccc4NC3=O)o2)cc1C#N [Example 176] | < 400
17 | Cn1ncc(-c2nnc(N[C@H]3N=C(c4ccccc4)c4ccccc4NC3=O)o2)c1N1CCOCC1 [Example 177] | > 800
18 | Cn1ncc(N2CCOCC2)c1-c1nnc(N[C@H]2N=C(c3ccccc3)c3ccccc3NC2=O)o1 [Example 178] | 400 to 800
19 | O=C1Nc2ccccc2C(c2ccccc2)=N[C@@H]1Nc1nnc(-c2sc3ncccc3c2N2CCOCC2)o1 [Example 180] | < 400
20 | Cn1cc(-c2nnc(N[C@H]3N=C(c4ccccc4)c4ccccc4NC3=O)o2)c(N2CCOCC2)n1 [Example 181] | < 400
21 | O=C1Nc2ccccc2C(c2ccccc2)=N[C@@H]1Nc1nnc(-c2sc(Br)cc2N2CCOCC2)o1 [Example 182] | < 400
22 | N#Cc1ccc(-c2nnc(NC3N=C(c4ccccc4)c4ccccc4NC3=O)o2)s1 (stereo not drawn) [Example 183] | < 400
23 | O=C1Nc2ccccc2C(c2ccccc2)=NC1Nc1nnc(-c2ccc(N3CCCC3)cc2)o1 (stereo not drawn) [Example 184] | 400 to 800

Row | Structure (SMILES) | EC50 [nM]
24 | COc1cnc(-c2nnc(NC3N=C(c4ccccc4)c4ccccc4NC3=O)o2)c(F)c1 (stereo not drawn) [Example 185] | > 800
25 | Cn1nnc(-c2ccc(-c3nnc(NC4N=C(c5ccccc5)c5ccccc5NC4=O)o3)cc2)n1 (stereo not drawn) [Example 186] | > 800
26 | Cc1nc2ccc(-c3nnc(NC4N=C(c5ccccc5)c5ccccc5NC4=O)o3)cc2s1 (stereo not drawn) [Example 187] | 400 to 800
27 | CC(C)c1nnc(NC2N=C(c3ccccc3)c3ccccc3NC2=O)o1 (stereo not drawn) [Example 188] | > 800
28 | CC(C)(C)c1nnc(NC2N=C(c3ccccc3)c3ccccc3NC2=O)o1 (stereo not drawn) [Example 189] | > 800
29 | CCCc1nnc(NC2N=C(c3ccccc3)c3ccccc3NC2=O)o1 (stereo not drawn) [Example 190] | > 800
30 | COCc1nnc(NC2N=C(c3ccccc3)c3ccccc3NC2=O)o1 (stereo not drawn) [Example 191] | > 800
31 | O=C1Nc2ccccc2C(c2ccccc2)=NC1Nc1nnc(CCC(F)(F)F)o1 (stereo not drawn) [Example 192] | > 800
32 | N#CCCc1nnc(NC2N=C(c3ccccc3)c3ccccc3NC2=O)o1 (stereo not drawn) [Example 193] | > 800
33 | CS(=O)(=O)Cc1nnc(NC2N=C(c3ccccc3)c3ccccc3NC2=O)o1 (stereo not drawn) [Example 194] | > 800
34 | CC1(c2nnc(NC3N=C(c4ccccc4)c4ccccc4NC3=O)o2)CC1 (stereo not drawn) [Example 195] | > 800
35 | O=C1Nc2ccccc2C(c2ccccc2)=NC1Nc1nnc(C2CCC2)o1 (stereo not drawn) [Example 196] | > 800
36 | O=C1Nc2ccccc2C(c2ccccc2)=NC1Nc1nnc(C2CCCC2)o1 (stereo not drawn) [Example 197] | > 800
37 | O=C1Nc2ccccc2C(c2ccccc2)=NC1Nc1nnc([C@H]2CCCO2)o1 (stereo partly drawn) [Example 198] | > 800
38 | O=C1Nc2ccccc2C(c2ccccc2)=NC1Nc1nnc(CCc2ccccc2)o1 (stereo not drawn) [Example 199] | > 800
39 | Cc1nc(-c2nnc(NC3N=C(c4ccccc4)c4ccccc4NC3=O)o2)ccc1C#N (stereo not drawn) [Example 200] | 400 to 800
40 | CN1C(=O)C(Nc2nnc(-c3ccc(F)cc3)o2)N=C(c2ccccc2)c2ccccc21 (stereo not drawn) [Example 201] | > 800
41 | O=C1Nc2ccccc2C(c2ccccc2)=NC1Nc1nnc(-c2ccc(-n3ccc(C(F)(F)F)n3)cc2)o1 (stereo not drawn) [Example 202] | > 800
42 | O=C1Nc2ccccc2C(c2ccccc2)=NC1Nc1nnc(CC(F)(F)F)o1 (stereo not drawn) [Example 203] | > 800
43 | O=C1Nc2ccccc2C(c2ccccc2)=NC1Nc1nnc(C2(F)CC2)o1 (stereo not drawn) [Example 204] | > 800
44 | CC1(C)C[C@@H]1c1nnc(NC2N=C(c3ccccc3)c3ccccc3NC2=O)o1 (stereo partly drawn) [Example 205] | > 800

Row | Structure (SMILES) | EC50 [nM]
45 | CC1(C)CC(c2nnc(NC3N=C(c4ccccc4)c4ccccc4NC3=O)o2)C1 (stereo not drawn) [Example 206] | > 800
46 | O=C1Nc2ccccc2C(c2ccccc2)=NC1Nc1nnc([C@@H]2CCCO2)o1 (stereo partly drawn) [Example 207] | > 800
47 | CC(C)(Cc1ccccc1)c1nnc(NC2N=C(c3ccccc3)c3ccccc3NC2=O)o1 (stereo not drawn) [Example 208] | > 800
48 | CN(c1nnc(-c2ccc(F)cc2)o1)C1N=C(c2ccccc2)c2ccccc2NC1=O (stereo not drawn) [Example 209] | > 800
49 | CN1CCN(c2ccc(-c3nnc(NC4N=C(c5ccccc5)c5ccccc5NC4=O)o3)cc2)CC1 (stereo not drawn) [Example 210] | > 800
50 | O=C1Nc2ccccc2C(c2ccccc2)=NC1Nc1nnc(-c2cccc(-n3ccnc3)c2)o1 (stereo not drawn) [Example 212] | > 800
51 | CC(C)(O)c1nnc(NC2N=C(c3ccccc3)c3ccccc3NC2=O)o1 (stereo not drawn) [Example 213] | > 800
52 | O=C1Nc2ccccc2C(c2ccccc2)=NC1Nc1nnc(C2CC(F)(F)C2)o1 (stereo not drawn) [Example 214] | > 800
53 | O=C1Nc2ccccc2C(c2ccccc2)=NC1Nc1nnc(C2CCOC2)o1 (stereo not drawn) [Example 215] | > 800
54 | O=C1Nc2ccccc2C(c2ccccc2)=NC1Nc1nnc(-c2ccc(-n3cncn3)c(F)c2)o1 (stereo not drawn) [Example 216] | 400 to 800
55 | Cc1cc(-c2nnc(NC3N=C(c4ccccc4)c4ccccc4NC3=O)o2)ccc1-n1cncn1 (stereo not drawn) [Example 217] | 400 to 800
56 | Cc1cc(-n2cncn2)ccc1-c1nnc(NC2N=C(c3ccccc3)c3ccccc3NC2=O)o1 (stereo not drawn) [Example 218] | > 800
57 | COc1cc(-c2nnc(NC3N=C(c4ccccc4)c4ccccc4NC3=O)o2)ccc1-n1cnc(C)c1 (stereo not drawn) [Example 219] | > 800
58 | O=C1Nc2ccccc2C(c2ccccc2)=NC1Nc1nnc(-c2ccc(OC3CCOCC3)cc2)o1 (stereo not drawn) [Example 220] | > 800
59 | O=C1Nc2ccccc2C(c2ccccc2)=NC1Nc1nnc(C2CC3(CCNCC3)C2)o1 (stereo not drawn) [Example 222] | > 800
60 | CC1(c2nnc(NC3N=C(c4ccccc4)c4ccccc4NC3=O)o2)CCNC1 (stereo not drawn) [Example 223] | > 800
61 | O=C1Nc2ccccc2C(c2ccccc2)=NC1Nc1nnc(-c2ccc(-n3cncn3)nc2)o1 (stereo not drawn) [Example 225] | > 800
62 | O=C1Nc2ccccc2C(c2ccccc2)=NC1Nc1nnc(-c2ccccc2-c2ccncc2)o1 (stereo not drawn) [Example 226] | > 800
63 | O=C1Nc2ccccc2C(c2ccccc2)=NC1Nc1nnc([C@@H]2CCCN2C2CCNCC2)o1 (stereo partly drawn) [Example 227] | > 800
